Consider 14 molecules from PMC6176729 (Journal of medicinal chemistry, 2018).

Structures are written as SMILES.

Common to all, as to assay type: in vitro ADME
Series [1] can be described thus: Microsomal stability assay, human liver microsomes. The conditions noted are these: for CLINT human: human liver microsomes 0.5 mg/mL, 1 μM compound; for CLHEP human: predicted hepatic clearance, human microsomes.
The nature of series [2]: Microsomal stability assay, mouse liver microsomes. (Liver microsomes are vesicles of endoplasmic reticulum, rich in cytochrome P450 enzymes.)
Series [3] is described as follows: Microsomal stability assay, rat liver microsomes. The conditions noted are these: for CLHEP rat: predicted hepatic clearance, rat microsomes; for CLINT rat: rat liver microsomes 0.5 mg/mL, 1 μM compound.
[4] abbreviates: mouse liver microsomes 0.5 mg/mL, 1 μM compound.
Where [5] appears, read: predicted hepatic clearance, mouse microsomes.
Setting [6] is: male, CD-1, mouse, 1 μM, pH 7.4.

For `O=C(N[C@@H](Cn1ccnc1)c1ccc(Cl)cc1Cl)c1ccc(-c2nnc(-c3cccc(Br)c3)o2)cc1` [Compound 6, (R)-4-(5-(3-Bromophenyl)-1,3,4-oxadiazol-2-yl)-N-(1-(2,4-di-chlorophenyl)-2-(1H-imidazol-1-yl)ethyl)benzamide], in series [1], the CLINT human was 9.47 mL/min/kg body weight and the CLHEP human is on record as 6.53 mL/min/kg body weight. The molecule further returned a CLINT mouse in series [2] (setting [4]) of 126 mL/min/kg body weight. In series [2] (setting [5]), the CLHEP mouse is reported as 55 mL/min/kg body weight. Besides, in series [3], the CLHEP rat is 19 mL/min/kg body weight and the CLINT rat is given as 27 mL/min/kg body weight.

Consider `O=C(N[C@@H](Cn1ccnc1)c1ccc(Cl)cc1Cl)c1ccc(-c2nnc(-c3ccc(C(F)(F)F)c(F)c3)o2)cc1` [Compound 2, (R)-N-(1-(2,4-Dichlorophenyl)-2-(1H-imidazol-1-yl)ethyl)-4-(5-(3-fluoro-4-(trifluoromethyl)phenyl)-1,3,4-oxadiazol-2-yl)benzamide], for which, in series [1], the CLINT human is 6.06 mL/min/kg body weight and the CLHEP human is given as 4.07 mL/min/kg body weight. Besides, the CLINT mouse in series [2] (setting [4]) stood at 60 mL/min/kg body weight. In addition, the CLHEP mouse in series [2] (setting [5]) was 36 mL/min/kg body weight. Also, in series [3], the CLHEP rat is given as 24 mL/min/kg body weight and the CLINT rat is 36 mL/min/kg body weight.

For `O=C(N[C@@H](Cn1ccnc1)c1ccc(Cl)cc1Cl)c1ccc(-c2nnc(-c3cc(F)cc(-c4ccccn4)c3)o2)cc1` [Compound 11, (R)-N-(1-(2,4-Dichlorophenyl)-2-(1H-imidazol-1-yl)ethyl)-4-(5-(3-fluoro-5-(pyridin-2-yl)phenyl)-1,3,4-oxadiazol-2-yl)benzamide], in series [1], the CLINT human is 96.6 mL/min/kg body weight and the CLHEP human is reported as 17.3 mL/min/kg body weight. Moreover, in series [2] (setting [4]), the CLINT mouse is given as 55.0 mL/min/kg body weight. Besides, the CLHEP mouse in series [2] (setting [5]) was 34 mL/min/kg body weight. Besides, in series [3], the CLHEP rat is 24.0 mL/min/kg body weight and the CLINT rat was determined as 36.0 mL/min/kg body weight.

Regarding `CS(=O)(=O)c1ccc(-c2nnc(-c3ccc(C(=O)N[C@@H](Cn4ccnc4)c4ccc(Cl)cc4Cl)cc3)o2)cc1Cl` [Compound 14, (R)-4-(5-(3-Chloro-4-(methylsulfonyl)phenyl)-1,3,4-oxadiazol-2-yl)-N-(1-(2,4-dichlorophenyl)-2-(1H-imidazol-1-yl)ethyl)benzamide], in series [1], the CLINT human was 9.31 mL/min/kg body weight and the CLHEP human is 6.45 mL/min/kg body weight. The same molecule showed a CLHEP mouse in series [2] (setting [6]) of 34.5 mL/min/kg body weight. The CLINT mouse in series [2] (mouse, microsomes) came to 56 mL/min/kg body weight. Besides, in series [3], the CLHEP rat is 42 mL/min/kg body weight and the CLINT rat is recorded as 104 mL/min/kg body weight.

Take `O=C(N[C@@H](Cn1ccnc1)c1ccc(Cl)cc1Cl)c1ccc(-c2nnc(-c3ccc(F)c(F)c3)o2)cc1` [Compound 1, (R)-N-(1-(2,4-Dichlorophenyl)-2-(1H-imidazol-1-yl)ethyl)-4-(5-(3,4-difluorophenyl)-1,3,4-oxadiazol-2-yl)benzamide]: in series [1], the CLINT human is given as 7.53 mL/min/kg body weight and the CLHEP human is 5.54 mL/min/kg body weight. The CLINT mouse in series [2] (setting [4]) is 55 mL/min/kg body weight. The CLHEP mouse in series [2] (setting [5]) was 34 mL/min/kg body weight. Further, in series [3], the CLHEP rat is given as 21 mL/min/kg body weight and the CLINT rat is 31 mL/min/kg body weight.

Regarding `O=C(N[C@@H](Cn1ccnc1)c1ccc(Cl)cc1Cl)c1ccc(-c2nnc(-c3ccc(-c4ccccn4)cc3F)o2)cc1` [Compound 12, (R)-N-(1-(2/4-Dichlorophenyl)-2-(1H-imidazol-1-yl)ethyl)-4-(5-(4-(3-fluoropyridin-2-yl)phenyl)-1,3,4-oxadiazol-2-yl)benzamide], in series [1], the CLINT human is reported as 15 mL/min/kg body weight and the CLHEP human was 8.75 mL/min/kg body weight. In series [2] (setting [4]), this molecule had a CLINT mouse of 36.5 mL/min/kg body weight. Moreover, the CLHEP mouse in series [2] (setting [5]) was 26.0 mL/min/kg body weight. Besides, in series [3], the CLHEP rat is 29.7 mL/min/kg body weight and the CLINT rat was 51.6 mL/min/kg body weight.

Take `O=C(N[C@@H](Cn1ccnc1)c1ccc(Cl)cc1Cl)c1ccc(-c2nnc(-c3ccccc3)o2)cc1` [VNI, (R)-N-(1-(2,4-dichlorophenyl)-2-(1H−imidazol-1-yl)ethyl)-4-(5-phenyl-1,3,4-oxadiazol-2-yl)-benzamide, reference compound]: in series [1], the CLINT human was found to be 8.31 mL/min/kg body weight and the CLHEP human is reported as 5.95 mL/min/kg body weight. The molecule further gave a CLINT mouse in series [2] (setting [4]) of 87 mL/min/kg body weight. The CLHEP mouse in series [2] (setting [5]) is 44 mL/min/kg body weight. In series [3], the CLHEP rat is 19.2 mL/min/kg body weight and the CLINT rat came out at 26.4 mL/min/kg body weight.

For `O=C(N[C@@H](Cn1ccnc1)c1ccc(Cl)cc1Cl)c1ccc(-c2nnc(-c3ccc(OCC(F)(F)F)cc3F)o2)cc1` [Compound 3, (R)-N-(1-(2,4-Dichlorophenyl)-2-(1H-imidazol-1-yl)ethyl)-4-(5-(2-fluoro-4-(2,2,2-trifluoroethoxy)phenyl)-1,3,4-oxadiazol-2-yl)-benzamide], in series [1], the CLINT human is listed as 16.5 mL/min/kg body weight and the CLHEP human is given as 9.24 mL/min/kg body weight. Moreover, the CLINT mouse in series [2] (setting [4]) was found to be 88 mL/min/kg body weight. The CLHEP mouse in series [2] (setting [5]) was 44 mL/min/kg body weight. Also, in series [3], the CLHEP rat is listed as 34 mL/min/kg body weight and the CLINT rat is recorded as 64 mL/min/kg body weight.

Turning to `O=C(N[C@@H](Cn1ccnc1)c1ccc(Cl)cc1Cl)c1ccc(-c2nnc(-c3cccc(-c4ccccn4)c3)o2)cc1` [Compound 9, (R)-N-(1-(2,4-Dichlorophenyl)-2-(1H-imidazol-1-yl)ethyl)-4-(5-(3-(pyridin-2-yl)phenyl)-1,3,4-oxadiazol-2-yl)benzamide], in series [1], the CLINT human worked out at 13.1 mL/min/kg body weight and the CLHEP human is on record as 8.06 mL/min/kg body weight. The CLHEP mouse in series [2] (setting [6]) worked out at 56 mL/min/kg body weight. The molecule further showed a CLINT mouse in series [2] (mouse, microsomes) of 152 mL/min/kg body weight. In addition, in series [3], the CLHEP rat is 35 mL/min/kg body weight and the CLINT rat was 68 mL/min/kg body weight.

As to `O=C(N[C@@H](Cn1ccnc1)c1ccc(Cl)cc1Cl)c1ccc(-c2nnc(-c3cc(F)cc(OCC(F)(F)F)c3)o2)cc1` [Compound 4, (R)-N-(1-(2,4-Dichlorophenyl)-2-(1H-imidazol-1-yl)ethyl)-4-(5-(3-fluoro-5-(2,2,2-trifluoroethoxy)phenyl)-1,3,4-oxadiazol-2-yl)-benzamide], in series [1], the CLINT human was found to be 11.3 mL/min/kg body weight and the CLHEP human is recorded as 7.33 mL/min/kg body weight. Also, the CLHEP mouse in series [2] (setting [6]) is reported as 43.6 mL/min/kg body weight. Besides, the CLINT mouse in series [2] (mouse, microsomes) was determined as 84.7 mL/min/kg body weight. Besides, in series [3], the CLHEP rat is 29 mL/min/kg body weight and the CLINT rat is on record as 50.4 mL/min/kg body weight.

`O=C(N[C@@H](Cn1ccnc1)c1ccc(Cl)cc1Cl)c1ccc(-c2nnc(-c3ccc(-c4ccccn4)cc3)o2)cc1` [Compound 10, (R)-N-(1-(2,4-Dichlorophenyl)-2-(1H-imidazol-1-yl)ethyl)-4-(5-(4-(pyridin-2-yl)phenyl)-1,3,4-oxadiazol-2-yl)benzamide]: in series [1], the CLINT human worked out at 10.8 mL/min/kg body weight and the CLHEP human is 7.15 mL/min/kg body weight. The molecule also returned a CLINT mouse in series [2] (setting [4]) of 95 mL/min/kg body weight. The CLHEP mouse in series [2] (setting [5]) is recorded as 46 mL/min/kg body weight. Also, in series [3], the CLHEP rat is given as 40 mL/min/kg body weight and the CLINT rat turned out to be 94 mL/min/kg body weight.

Consider `O=C(N[C@@H](Cn1ccnc1)c1ccc(Cl)cc1Cl)c1ccc(-c2nnc(-c3ccc(Cl)c(Cl)c3)o2)cc1` [Compound 5, (R)-4-(5-(3,4-Dichlorophenyl)-1,3,4-oxadiazol-2-yl)-N-(1-(2,4-di-chlorophenyl)-2-(1H-imidazol-1-yl)ethyl)benzamide], for which, in series [1], the CLINT human was 11.4 mL/min/kg body weight and the CLHEP human is 7.39 mL/min/kg body weight. The molecule also showed a CLHEP mouse in series [2] (setting [6]) of 49 mL/min/kg body weight. This molecule had a CLINT mouse in series [2] (mouse, microsomes) of 107 mL/min/kg body weight. Further, in series [3], the CLHEP rat is 35 mL/min/kg body weight and the CLINT rat came out at 70 mL/min/kg body weight.

Regarding `O=C(N[C@@H](Cn1ccnc1)c1ccc(Cl)cc1Cl)c1ccc(-c2nnc(-c3cc(-c4ccccn4)ccc3F)o2)cc1` [Compound 13, (R)-N-(l-(2,4-Dichlorophenyl)-2-(TH-imidazol-l-yl)ethyl)-4-(5-(2-fluoro-5-(pyridin-2-yl)phenyl)-1,3,4-oxadiazol-2-yl)benzamide], in series [1], the CLINT human worked out at 10.2 mL/min/kg body weight and the CLHEP human was 6.85 mL/min/kg body weight. Also, the CLINT mouse in series [2] (setting [4]) is 238 mL/min/kg body weight. Further, in series [2] (setting [5]), the CLHEP mouse is reported as 65 mL/min/kg body weight. In series [3], the CLHEP rat is 29.0 mL/min/kg body weight and the CLINT rat was 49.4 mL/min/kg body weight.

For the molecule `O=C(N[C@@H](Cn1ccnc1)c1ccc(Cl)cc1Cl)c1ccc(-c2nnc(-c3cc(F)cc(-c4ncncc4F)c3)o2)cc1` [Compound 15, (R)-N-(1-(2,4-Dichlorophenyl)-2-(1H-imidazol-1-yl)ethyl)-4-(5-(3-fluoro-5-(5-fluoropyrimidin-4-yl)phenyl)-1,3,4-oxadiazol-2-yl)-benzamide], in series [1], the CLINT human came to 14.9 mL/min/kg body weight and the CLHEP human is 8.37 mL/min/kg body weight. Besides, the CLINT mouse in series [2] (setting [4]) came out at 104 mL/min/kg body weight. In addition, the CLHEP mouse in series [2] (setting [5]) was 48.3 mL/min/kg body weight. Besides, in series [3], the CLHEP rat is given as 19.5 mL/min/kg body weight and the CLINT rat stood at 27.0 mL/min/kg body weight.
